Test results from patent US12528832B2, “Crystalline or amorphous form of Bcl-2/Bcl-xL inhibitor compound or its salts” (ASCENTAGE PHARMA (SUZHOU) CO., LTD., priority 2020, dated 2026).
Counter-ions that a name gives are not always drawn. Values belong to the compound of their own block, whether it stands above or below them.

How the values were obtained:
[1] = Physicochemical stability of crystalline form VI, one week storage (HPLC purity, XRPD form)
[2] = Stability test of salt form screening (25° C., R.T./75% RH, light; HPLC, XRPD); assay type: physicochemical
Experimental: Take an appropriate amount of the compound into an 8 mL glass bottle, and then place it at room temperature (25° C., open), high humidity (room temperature/75% RH, open) and light (room temperature, white light: 6980 lux, UV 282 μW/cm2). Take samples for testing on the 5th, 10th, and 30th day (HPLC, XRPD).

[3] = Hygroscopicity test, dynamic water adsorption (DVS); assay type: physicochemical
Experimental: Take about 10 mg of the Amorphous form XIV sample of the compound of formula I for dynamic water adsorption (DVS) test.

[4] = Stability test of amorphous form XIV (40° C., high humidity 92.5% RH, light; content, related substances); assay type: physicochemical
Experimental: Pack the amorphous sample with nitrogen, shading, and moisture-proof, and place it under 40° C., high humidity 92.5% RH, light conditions, and take samples at 0 days/5 days/10 days to investigate its content, related substances and crystal forms (light conditions: total illuminance≥1.2×106 Lux·hr, near ultraviolet energy≥200 w·hr/m2).

[5] = Light, room temperature, 5 Days
[6] = Light, room temperature, 10 Days
[7] = 10 Days, high humidity 92.5% RH

Total impurities (%) ([2]; 25° C., open, 5 Days): 0.79% | Total impurities (%) ([2]; 25° C., open, 10 Days): 0.89% | Total impurities (%) ([2]; 25° C., open, 30 Days): 1.23% | Total impurities (%) ([2]; Initial, 0 Days): 0.73% | Total impurities (%) [2, 5]: 1.33% | Total impurities (%) [2, 6]: 1.94% | Total impurities (%) ([2]; R.T./75% RH, open, 5 Days): 1.59% | Total impurities (%) ([2]; R.T./75% RH, open, 10 Days): 2.59% | Total impurities (%) ([2]; R.T./75% RH, open, 30 Days): 7.00%
SMILES: Cc1c(S(C)(=O)=O)c(-c2cc(F)cc(N3CCN(c4ccc(NS(=O)(=O)c5ccc(N[C@H](CCN6CCC(C(=O)OCCCP(=O)(O)O)CC6)CSc6ccccc6)c(S(=O)(=O)C(F)(F)F)c5)cc4)CC3)c2)c(-c2ccc(Cl)cc2)n1C(C)C [Amorphous form XV of maleate salt]

Hygroscopicity classification ([3]; DVS, 80% RH): Hygroscopic | Moisture gain (80% RH) ([3]; DVS, 80% RH): 4.83% | water absorption during storage ([3]; conclusion from DVS): easily absorb water | physical and chemical stability (summary statement) [4]: good physical and chemical stability | Content(%) ([4]; 0 Days): 99.5% | Total impurities (%) ([4]; 0 Days): 0.39% | Content(%) ([4]; 5 Days, 40° C.): 100.3% | Total impurities (%) ([4]; 5 Days, 40° C.): 0.59% | Content(%) ([4]; 5 Days, high humidity 92.5% RH): 100.7% | Total impurities (%) ([4]; 5 Days, high humidity 92.5% RH): 0.37% | Content(%) ([4]; 5 Days, light): 100.4% | Total impurities (%) ([4]; 5 Days, light): 0.43% | Content(%) ([4]; 10 Days, 40° C.): 99.7% | Total impurities (%) ([4]; 10 Days, 40° C.): 0.64% | Content(%) [4, 7]: 99.7% | Total impurities (%) [4, 7]: 0.39% | Content(%) ([4]; 10 Days, light): 100.1% | Total impurities (%) ([4]; 10 Days, light): 0.41% | stability under high humidity and light conditions ([4]; packed with nitrogen, shading, moisture-proof): stable | stability to heat ([4]; packed with nitrogen, shading, moisture-proof, 40° C.): sensitive to heat
SMILES: Cc1c(S(C)(=O)=O)c(-c2cc(F)cc(N3CCN(c4ccc(NS(=O)(=O)c5ccc(N[C@H](CCN6CCC(C(=O)OCCCP(=O)(O)O)CC6)CSc6ccccc6)c(S(=O)(=O)C(F)(F)F)c5)cc4)CC3)c2)c(-c2ccc(Cl)cc2)n1C(C)C [Amorphous XIV]

Total impurities (%) ([2]; 25° C., open, 5 Days): 1.89% | Total impurities (%) ([2]; 25° C., open, 10 Days): 1.94% | Total impurities (%) ([2]; 25° C., open, 30 Days): 2.29% | Total impurities (%) ([2]; Initial, 0 Days): 1.65% | Total impurities (%) [2, 5]: 2.20% | Total impurities (%) [2, 6]: 3.55% | Total impurities (%) ([2]; R.T./75% RH, open, 5 Days): 2.45% | Total impurities (%) ([2]; R.T./75% RH, open, 10 Days): 3.08% | Total impurities (%) ([2]; R.T./75% RH, open, 30 Days): 6.31%
SMILES: Cc1c(S(C)(=O)=O)c(-c2cc(F)cc(N3CCN(c4ccc(NS(=O)(=O)c5ccc(N[C@H](CCN6CCC(C(=O)OCCCP(=O)(O)O)CC6)CSc6ccccc6)c(S(=O)(=O)C(F)(F)F)c5)cc4)CC3)c2)c(-c2ccc(Cl)cc2)n1C(C)C [Amorphous form XIII of sodium salt]

The remaining lines, values behind:

SMILES: Cc1c(S(C)(=O)=O)c(-c2cc(F)cc(N3CCN(c4ccc(NS(=O)(=O)c5ccc(N[C@H](CCN6CCC(C(=O)OCCCP(=O)(O)O)CC6)CSc6ccccc6)c(S(=O)(=O)C(F)(F)F)c5)cc4)CC3)c2)c(-c2ccc(Cl)cc2)n1C(C)C [Crystal form VI]
physical and chemical stability (summary statement) [1]: good physical and chemical stability | change of purity and crystal form ([1]; 25° C./60% RH and 40° C./75% RH for one week): did not change significantly | HPLC purity (Peak area %) ([1]; 25° C./60% RH, one week): 99.01 Peak area % | Solid crystal form ([1]; 25° C./60% RH, one week): Crystal form VI | HPLC purity (Peak area %) ([1]; 40° C./75% RH, one week): 99.06 Peak area % | Solid crystal form ([1]; 40° C./75% RH, one week): Crystal form VI | HPLC purity (Peak area %) ([1]; Initial sample): 99.02 Peak area % | Solid crystal form ([1]; Initial sample): Crystal form VI

SMILES: Cc1c(S(C)(=O)=O)c(-c2cc(F)cc(N3CCN(c4ccc(NS(=O)(=O)c5ccc(N[C@H](CCN6CCC(C(=O)OCCCP(=O)(O)O)CC6)CSc6ccccc6)c(S(=O)(=O)C(F)(F)F)c5)cc4)CC3)c2)c(-c2ccc(Cl)cc2)n1C(C)C [Amorphous form XVI of meglumine salt]
physical and chemical stability (summary statement) [2]: good physical and chemical stability | Total impurities (%) ([2]; 25° C., open, 5 Days): 0.95% | Total impurities (%) ([2]; 25° C., open, 10 Days): 0.89% | Total impurities (%) ([2]; 25° C., open, 30 Days): 0.88% | Total impurities (%) ([2]; Initial, 0 Days): 0.83% | Total impurities (%) [2, 5]: 1.33% | Total impurities (%) [2, 6]: 1.74% | Total impurities (%) ([2]; R.T./75% RH, open, 5 Days): 1.36% | Total impurities (%) ([2]; R.T./75% RH, open, 10 Days): 1.86% | Total impurities (%) ([2]; R.T./75% RH, open, 30 Days): 4.95%

SMILES: Cc1c(S(C)(=O)=O)c(-c2cc(F)cc(N3CCN(c4ccc(NS(=O)(=O)c5ccc(N[C@H](CCN6CCC(C(=O)OCCCP(=O)(O)O)CC6)CSc6ccccc6)c(S(=O)(=O)C(F)(F)F)c5)cc4)CC3)c2)c(-c2ccc(Cl)cc2)n1C(C)C [Amorphous form XII of potassium salt]
Total impurities (%) ([2]; 25° C., open, 5 Days): 1.63% | Total impurities (%) ([2]; 25° C., open, 10 Days): 1.58% | Total impurities (%) ([2]; 25° C., open, 30 Days): 1.86% | Total impurities (%) ([2]; Initial, 0 Days): 1.40% | Total impurities (%) [2, 5]: 2.09% | Total impurities (%) [2, 6]: 2.69% | Total impurities (%) ([2]; R.T./75% RH, open, 5 Days): 2.25% | Total impurities (%) ([2]; R.T./75% RH, open, 10 Days): 2.98% | Total impurities (%) ([2]; R.T./75% RH, open, 30 Days): 6.11%
